Assay results as given in ChEMBL document CHEMBL3627685, “Identification of a molecular target of kurahyne, an apoptosis-inducing lipopeptide from marine cyanobacterial assemblages” (Bioorg Med Chem Lett, 2015).
Calls of active or inactive are those of the source. No cut-off for these calls is given here. Starred links: 1 amine or outer side, 2 acyl side, 3 side chain; linkers in the order of their positions; H or OH if unused. Non-standard residues stand in square brackets, D forms with d. Residues, ends and D or L forms follow the SMILES beside them. *: point of attachment. X2 = O=C(O)c1cc(N*)ccc1-c1c2ccc(=O)cc-2oc2cc(O)ccc12; Pyrrolidine(2S-propanoyl) = CCC(=O)[C@@H]1CCCN1*; Biotin = O=C1N[C@H]2[C@H](CS[C@H]2CCCCC(=O)*)N1; X3 = C/C(=C\CCCc1cn(CCCN[*:1])nn1)C(=O)[*:2]; NMeI = CC[C@H](C)[C@H](NC)C(=O)O; PEG4 = NCCOCCOCCOCCOCCC(=O)O; NMeV = CN[C@H](C(=O)O)C(C)C; CO = O=C([*:1])[*:2]

Columns and labels:
HeLa S3 [1] = assay: Induction of Ca2+ release from endoplasmic reticulum into cytosol in human HeLaS3 cells at 1 uM by fura-2/AM-based spectrofluorometric analysis; assay type: functional, cell-based
[2] = target: Sarcoplasmic/endoplasmic reticulum calcium ATPase 1 (Oryctolagus cuniculus) (UniProt P04191); assay: Inhibition of ATPase activity of SERCA1a in rabbit sarcoplasmic reticulum vesicles at 30 uM measured for 3 mins by lactate dehydrogenase/pyruvate kinase coupled assay
Sarcoplasmic/endoplasmic reticulum calcium ATPase 1 (Oryctolagus cuniculus), sequence (P04191 whole entry): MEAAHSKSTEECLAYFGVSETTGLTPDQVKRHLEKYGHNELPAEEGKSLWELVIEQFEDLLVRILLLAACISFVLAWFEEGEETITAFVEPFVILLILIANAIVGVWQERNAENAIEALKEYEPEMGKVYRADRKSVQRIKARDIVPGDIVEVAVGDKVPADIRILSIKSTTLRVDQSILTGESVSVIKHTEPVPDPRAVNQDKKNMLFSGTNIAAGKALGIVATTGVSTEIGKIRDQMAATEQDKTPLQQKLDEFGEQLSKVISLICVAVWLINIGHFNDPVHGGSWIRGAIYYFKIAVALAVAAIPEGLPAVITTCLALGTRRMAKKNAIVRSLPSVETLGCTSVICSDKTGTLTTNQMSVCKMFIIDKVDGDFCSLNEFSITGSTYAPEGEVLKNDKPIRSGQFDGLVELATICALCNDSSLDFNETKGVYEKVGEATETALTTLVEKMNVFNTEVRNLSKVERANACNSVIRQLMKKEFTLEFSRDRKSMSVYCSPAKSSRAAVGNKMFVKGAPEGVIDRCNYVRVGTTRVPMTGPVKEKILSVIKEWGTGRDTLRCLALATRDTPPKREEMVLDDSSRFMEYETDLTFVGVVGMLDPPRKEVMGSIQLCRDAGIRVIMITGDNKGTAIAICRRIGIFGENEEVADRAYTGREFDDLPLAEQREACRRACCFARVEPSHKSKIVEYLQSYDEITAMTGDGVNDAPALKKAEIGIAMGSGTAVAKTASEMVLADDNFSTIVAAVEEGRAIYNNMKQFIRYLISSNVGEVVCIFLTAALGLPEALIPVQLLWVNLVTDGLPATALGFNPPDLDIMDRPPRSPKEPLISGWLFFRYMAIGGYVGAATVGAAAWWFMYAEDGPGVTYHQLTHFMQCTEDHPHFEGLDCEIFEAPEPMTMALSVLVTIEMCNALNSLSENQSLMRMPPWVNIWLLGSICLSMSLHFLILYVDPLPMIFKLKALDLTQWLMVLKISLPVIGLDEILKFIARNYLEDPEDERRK

HeLa [3] = assay: Induction of endoplasmic reticulum stress in human HeLa cells assessed as upregulation of CHOP mRNA expression at 1 uM after 6 hrs by RT-PCR analysis; assay type: functional, cell-based
HeLa [4] = assay: Induction of endoplasmic reticulum stress in human HeLa cells assessed as upregulation of Bip mRNA expression at 1 uM after 6 hrs by RT-PCR analysis; assay type: functional, cell-based
HeLa [5] = assay: Induction of endoplasmic reticulum stress in human HeLa cells assessed as upregulation of Bip mRNA expression at 100 uM after 6 hrs by RT-PCR analysis; assay type: functional, cell-based
HeLa S3 [6] = assay: Induction of Ca2+ release from endoplasmic reticulum into cytosol in human HeLaS3 cells at 10 uM by fura-2/AM-based spectrofluorometric analysis; assay type: functional, cell-based
[7] = Drug uptake in endoplasmic reticulum in human HeLa cells at 10 uM after 6 hrs by DsRed/DAPI dye-based fluorescence microscopic analysis; assay type: ADME, cell-based
HeLa [8] = assay: Binding affinity to SERCA in human HeLa cells at […] after 12 hrs by immunoblot analysis; assay type: cell-based
ACHN = assay: Cytotoxicity against human ACHN cells assessed as growth inhibition by sulforhodamine B assay; assay type: functional
[9] = Cytotoxicity against human BSY1 cells assessed as growth inhibition by sulforhodamine B assay; assay type: functional; conditions: BSY-1
OVCAR-5 = assay: Cytotoxicity against human OVCAR5 cells assessed as growth inhibition by sulforhodamine B assay; assay type: functional
DU-145 = assay: Cytotoxicity against human DU145 cells assessed as growth inhibition by sulforhodamine B assay; assay type: functional
SF-295 = assay: Cytotoxicity against human SF295 cells assessed as growth inhibition by sulforhodamine B assay; assay type: functional
LOX IMVI = assay: Cytotoxicity against human LOXIMVI cells assessed as growth inhibition by sulforhodamine B assay; assay type: functional
HeLa S3 [10] = assay: Induction of Ca2+ release from endoplasmic reticulum into cytosol in human HeLaS3 cells by fura-2/AM-based spectrofluorometric analysis; assay type: functional, cell-based
[11] = Cytotoxicity against human DMS273 cells assessed as growth inhibition by sulforhodamine B assay; assay type: functional; conditions: DMS-273
SNB-75 = assay: Cytotoxicity against human SNB75 cells assessed as growth inhibition by sulforhodamine B assay; assay type: functional
KM12 = assay: Cytotoxicity against human KM12 cells assessed as growth inhibition by sulforhodamine B assay; assay type: functional
U-251 = assay: Cytotoxicity against human U251 cells assessed as growth inhibition by sulforhodamine B assay; assay type: functional
SF-539 = assay: Cytotoxicity against human SF539 cells assessed as growth inhibition by sulforhodamine B assay; assay type: functional
OVCAR-3 = assay: Cytotoxicity against human OVCAR3 cells assessed as growth inhibition by sulforhodamine B assay; assay type: functional
OVCAR-4 = assay: Cytotoxicity against human OVCAR4 cells assessed as growth inhibition by sulforhodamine B assay; assay type: functional
HeLa [12] = assay: Induction of endoplasmic reticulum stress in human HeLa cells assessed as upregulation of Bip mRNA expression at 10 uM after 6 hrs by RT-PCR analysis; assay type: functional, cell-based
A549 = assay: Cytotoxicity against human A549 cells assessed as growth inhibition by sulforhodamine B assay; assay type: functional
HL-60 = assay: Cytotoxicity against human HL60 cells assessed as growth inhibition after 72 hrs by MTT assay; assay type: functional, cell-based; conditions: HL-60, 72 h
[13] = Cytotoxicity against human HBC4 cells assessed as growth inhibition by sulforhodamine B assay; assay type: functional
[14] = Cytotoxicity against human RXF631L cells assessed as growth inhibition by sulforhodamine B assay; assay type: functional; conditions: RXF 631
SK-OV-3 = assay: Cytotoxicity against human SKOV3 cells assessed as growth inhibition by sulforhodamine B assay; assay type: functional
[15] = target: Sarcoplasmic/endoplasmic reticulum calcium ATPase 1 (Oryctolagus cuniculus) (UniProt P04191); assay: Inhibition of ATPase activity of SERCA1a in rabbit sarcoplasmic reticulum vesicles measured for 3 mins by lactate dehydrogenase/pyruvate kinase coupled assay
[16] = Cytotoxicity against human MKN45 cells assessed as growth inhibition by sulforhodamine B assay; assay type: functional; conditions: MKN-45
[17] = Cytotoxicity against human MKN1 cells assessed as growth inhibition by sulforhodamine B assay; assay type: functional; conditions: MKN-1
St-4 = assay: Cytotoxicity against human St-4 cells assessed as growth inhibition by sulforhodamine B assay; assay type: functional
HeLa [18] = assay: Cytotoxicity against human HeLa cells assessed as growth inhibition after 72 hrs by MTT assay; assay type: functional, cell-based
HeLa [19] = assay: Induction of endoplasmic reticulum stress in human HeLa cells assessed as upregulation of CHOP mRNA expression at 10 uM after 6 hrs by RT-PCR analysis; assay type: functional, cell-based
[20] = Cytotoxicity against human DMS114 cells assessed as growth inhibition by sulforhodamine B assay; assay type: functional; conditions: DMS-114
SF-268 = assay: Cytotoxicity against human SF268 cells assessed as growth inhibition by sulforhodamine B assay; assay type: functional
[21] = Cytotoxicity against human SNB78 cells assessed as growth inhibition by sulforhodamine B assay; assay type: functional; conditions: SNB-78
[22] = Cytotoxicity against human MKN7 cells assessed as growth inhibition by sulforhodamine B assay; assay type: functional; conditions: MKN-7
HCT-15 = assay: Cytotoxicity against human HCT15 cells assessed as growth inhibition by sulforhodamine B assay; assay type: functional
[23] = Cytotoxicity against human HBC5 cells assessed as growth inhibition by sulforhodamine B assay; assay type: functional
[24] = Cytotoxicity against human MKN74 cells assessed as growth inhibition by sulforhodamine B assay; assay type: functional; conditions: MKN-74
[25] = Cytotoxicity against human MKN28 cells assessed as growth inhibition by sulforhodamine B assay; assay type: functional; conditions: MKN-28
NCI-H522 = assay: Cytotoxicity against human NCI-H522 cells assessed as growth inhibition by sulforhodamine B assay; assay type: functional
PC-3 = assay: Cytotoxicity against human PC3 cells assessed as growth inhibition by sulforhodamine B assay; assay type: functional
HCT-116 = assay: Cytotoxicity against human HCT116 cells assessed as growth inhibition by sulforhodamine B assay; assay type: functional
MDA-MB-231 = assay: Cytotoxicity against human MDA-MB-231 cells assessed as growth inhibition by sulforhodamine B assay; assay type: functional
NCI-H226 = assay: Cytotoxicity against human NCI-H226 cells assessed as growth inhibition by sulforhodamine B assay; assay type: functional
NCI-H23 = assay: Cytotoxicity against human NCI-H23 cells assessed as growth inhibition by sulforhodamine B assay; assay type: functional
NCI-H460 = assay: Cytotoxicity against human NCI-H460 cells assessed as growth inhibition by sulforhodamine B assay; assay type: functional
HCC 2998 = assay: Cytotoxicity against human HCC2998 cells assessed as growth inhibition by sulforhodamine B assay; assay type: functional
MCF7 = assay: Cytotoxicity against human MCF7 cells assessed as growth inhibition by sulforhodamine B assay; assay type: functional
HT-29 = assay: Cytotoxicity against human HT-29 cells assessed as growth inhibition by sulforhodamine B assay; assay type: functional
OVCAR-8 = assay: Cytotoxicity against human OVCAR8 cells assessed as growth inhibition by sulforhodamine B assay; assay type: functional
[26] = Cytotoxicity against mouse BMDM assessed as growth inhibition after 72 hrs by MTT assay

## C/C=C(/C)C(=O)O[C@H]1C(C)=C2[C@H]([C@@H]1OC(=O)CCCCCCC)[C@@](C)(OC(C)=O)C[C@H](OC(=O)CCC)[C@@]1(O)[C@H]2OC(=O)[C@@]1(C)O
HeLa S3 [1]
  Activity: Active
[2]
  inhibition: Active
HeLa [3]
  Activity: Active
HeLa [4]
  Activity: Active

## C#CCCC/C=C(\C)C(=O)N(C)[C@H](C(=O)N(C)[C@H](C(=O)N(C)[C@H](C(=O)N(C)[C@H](C(=O)N1CCC[C@H]1C(=O)N1CCC[C@H]1/C(CC)=N/OCC(=O)NCCCCCNC(=S)Nc1ccc(-c2c3ccc(=O)cc-3oc3cc(O)ccc23)c(C(=O)O)c1)C(C)C)C(C)C)[C@@H](C)CC)[C@@H](C)CC
HeLa [5]
  Activity: inactive

## CC(=O)C1=C(O)[C@@H]2[C@H]3c4c[nH]c5cccc(c45)C[C@H]3C(C)(C)N2C1=O
HeLa S3 [6]
  Activity: Active

## CCC(=O)[C@@H]1CCCN1C(=O)[C@@H]1CCCN1C(=O)[C@H](C(C)C)N(C)C(=O)[C@H](C(C)C)N(C)C(=O)[C@H]([C@@H](C)CC)N(C)C(=O)[C@H]([C@@H](C)CC)N(C)C(=O)/C(C)=C/CCCc1cn(CCCNC(=O)Nc2ccc(-c3c4ccc(=O)cc-4oc4cc(O)ccc34)c(C(=O)O)c2)nn1 ({X2-CO}-[X3][NMeI][NMeI][NMeV][NMeV]P-{Pyrrolidine(2S-propanoyl)})
[7]
  Drug uptake: Active
HeLa [5]
  Activity: Active

## CCC(=O)[C@@H]1CCCN1C(=O)[C@@H]1CCCN1C(=O)[C@H](C(C)C)N(C)C(=O)[C@H](C(C)C)N(C)C(=O)[C@H]([C@@H](C)CC)N(C)C(=O)[C@H]([C@@H](C)CC)N(C)C(=O)/C(C)=C/CCCc1cn(CCCNC(=O)CCOCCOCCOCCOCCNC(=O)CCCC[C@@H]2SC[C@@H]3NC(=O)N[C@@H]32)nn1 ({Biotin-PEG4}-[X3][NMeI][NMeI][NMeV][NMeV]P-{Pyrrolidine(2S-propanoyl)})
HeLa [8]
  Activity: Active

## C#CCCC/C=C(\C)C(=O)N(C)[C@H](C(=O)N(C)[C@H](C(=O)N(C)[C@H](C(=O)N(C)[C@H](C(=O)N1CCC[C@H]1C(=O)N1CCC[C@H]1C(=O)CC)C(C)C)C(C)C)[C@@H](C)CC)[C@@H](C)CC (HELM PEPTIDE1{[C#CCCC/C=C(\C)C(=O)[*:2]].[meI].[meI].[meV].[meV].P.[CCC(=O)[C@@H]1CCCN1[*:1]]}$$$$V2.0)
ACHN
  GI50: 13.5 µM
[9]
  GI50: 3.09 µM
OVCAR-5
  GI50: 11.2 µM
DU-145
  GI50: 13.8 µM
SF-295
  GI50: 10.7 µM
LOX IMVI
  GI50: 3.89 µM
HeLa S3 [10]
  Activity: Dose-dependent effect
[11]
  GI50: 5.5 µM
SNB-75
  GI50: 14.5 µM
KM12
  GI50: 12.9 µM
U-251
  GI50: 8.32 µM
SF-539
  GI50: 10 µM
OVCAR-3
  GI50: 6.61 µM
OVCAR-4
  GI50: 11 µM
HeLa [12]
  Activity: Active
A549
  GI50: 7.24 µM
HL-60
  IC50: 1.5 µM
[13]
  GI50: 12.3 µM
[14]
  GI50: 5.89 µM
SK-OV-3
  GI50: 11.2 µM
[15]
  inhibition: Dose-dependent effect
[16]
  GI50: 7.94 µM
[17]
  GI50: 15.1 µM
St-4
  GI50: 13.2 µM
HeLa [18]
  IC50: 3.9 µM
HeLa [19]
  Activity: Active
[20]
  GI50: 4.9 µM
SF-268
  GI50: 5.62 µM
[21]
  GI50: 16.6 µM
[22]
  GI50: 7.41 µM
HCT-15
  GI50: 11.5 µM
[23]
  GI50: 10.5 µM
[24]
  GI50: 3.72 µM
[25]
  GI50: 12.9 µM
NCI-H522
  GI50: 2.4 µM
PC-3
  GI50: 4.47 µM
HCT-116
  GI50: 5.13 µM
MDA-MB-231
  GI50: 4.17 µM
NCI-H226
  GI50: 7.24 µM
NCI-H23
  GI50: 13.8 µM
NCI-H460
  GI50: 9.55 µM
HCC 2998
  GI50: 14.8 µM
MCF7
  GI50: 3.98 µM
HT-29
  GI50: 4.47 µM
OVCAR-8
  GI50: 14.5 µM
[26]
  IC50: 1.96 µM
